# Data taken from patent publication US10753947B2, “Methods for screening voltage-gated proteins” (D.E. Shaw Research, LLC, priority 2012, dated 2020).
# Changes are numbered by the printed parent chain. Read-outs that look alike come from different tables or passages of the source.
# Key:
# [1] = molecular target: T1, Shaker R362S with alpha pore open (R1S) (Drosophila melanogaster, UniProt P08510, DUP563-563/L584V/Q583H/R362S); experiment: Omega currents (Iω) of Shaker R1S in Xenopus oocytes, two electrode voltage-clamp; assay type: cell-based; details: 30, 100 and 300 μM La3+; test pulses +60 mV to -300 mV, holding -50 mV
# T1 construct: expressed in transfected cells; host or cells: Xenopus oocytes injected with cRNA (vector pBSTA)
# Excerpt: (§1) The coding cDNAs of Shaker “wild-type” (hereinafter WT) base construct (Shaker H4, with intact inactivation), Shaker R362S with alpha pore open (hereinafter R1S) and Shaker with the alpha pore closed by mutation W434F (herein after R1S/W434F) were cloned into a high expression vector pBSTA. The C-terminus of all constructs was tagged with eGFP. Transcripted cRNA was produced using the mMessage mMachine kit (Ambion Inc.).
# (§2) Two to four days past injection of cRNA into stage V-VI Xenopus oocytes (NASCO), omega currents (Iω) and currents through the alpha pore (Iα) were recorded with the two electrode voltage-clamp technique making use of a TURBO TEC-05× amplifier (npi electronic GmbH). Currents were filtered at 10 kHz and sampled at 20 kHz. The bath solution contained (in mM): NaCl 96, KCl 2, CaCl2 1, MgCl2 1 and HEPES 5 (pH 7.5). Voltage-recording and current-injecting microelectrodes were filled with 3 M KCl and pulled to have resistances between 0.2 and 1 MΩ (see Stork et al., 2007). The pClamp software package v.10.1 (Molecular Devices, Inc.) was used for data acquisition and analysis.
# (§3) Pulses (20 ms) from +60 to ˜300 mV were applied in 20 mV steps at 1 Hz from a holding potential of either −80 mV (WT, R1S/W434F) or ˜50 mV (R1S) (see FIG. 34B) to measure omega currents (Iω) without leak subtraction. […]
# [2] = molecular target: T2, Shaker R1S/W434F (alpha pore closed) (Drosophila melanogaster, UniProt P08510, DUP563-563/L584V/Q583H/R362S/W434F); experiment: Omega currents (Iω) of Shaker R1S/W434F in Xenopus oocytes, two electrode voltage-clamp; assay type: cell-based; details: 100 μM La3+, steps from -80 mV to -200 mV, 20 ms pulses at 1 Hz
# T2 construct: expressed in transfected cells; host or cells: Xenopus oocytes injected with cRNA (vector pBSTA)
# Excerpt: as §1, §2, §3
# [3] = test system: Kv2.1 R293S/R294S/R300S (R-1S/R0S/R2S); experiment: Omega currents (Iω) of Kv2.1 R-1S/R0S/R2S in Xenopus oocytes, two electrode voltage-clamp; assay type: cell-based, human
# Excerpt: The coding cDNAs of KV2.1 “wild-type” (hereinafter WT) base construct (hKv2.1-m7-c3 is human Kv2.1, residues 1-858, mutated to confer AgTx2 sensitivity and to remove extracellular cysteine residues) was synthesized (Entelchon GmbH) and cloned into the high expression vector pBSTA.
# Mutations Kv2.1 R294N (hereinafter R0N), Kv2.1 R300S (hereinafter R2S), Kv2.1 R294C/R300S (hereinafter R0C/R2S), Kv2.1 R293S/R294S (hereinafter R-1S/R0S), Kv2.1 R293S/R294C (hereinafter R-1S/R0C), Kv2.1 R293S/R294S/R300S (hereinafter R-1S/R0S/R2S), Kv2.1 R293S/R294C/R300S (hereinafter R-1S/R0C/R2S) were introduced using the QuikChange® Lightning Site-Directed Mutagenesis Kit (Stratagene) with mutagenic primers according to the manufacturer's instructions. All constructs were checked by restriction site mapping and sequencing.
# as §2, with “Transcripted cRNA was produced using the mMessage mMachine kit (Ambion Inc.). Two” for “Two”, “(NASCO) potassium” for “(NASCO), omega currents (Iω) and”
# Recording of alpha currents (Iα): Pulses of 100 ms were applied from ˜60 to +60 mV in 10 mV steps at 1 Hz from a holding potential of ˜80 mV to the Kv2.1 channel constructs to measure alpha currents (Iα). Passive leak currents were subtracted online using a P/4 procedure: pClamp software generates a series of scaled-down replica sweeps of the main stimulus waveform. […] The cell's response to the subsweeps is used to calculate the degree of passive cellular current leak. This is then subtracted from acquired data on the associated input signal. Recording of omega currents (Iω): Pulses of 10 ms were applied from a holding potential of ˜80 to ˜300 mV in 20 mV steps at 0.3 Hz to the Kv2.1 channel constructs. Iω were recorded without leak subtraction.
# AgTx2 (Sigma Aldrich) was reconstituted according to manufacturer's instructions with 10 mM Tris, pH 7.5, containing 100 mM sodium chloride, 0.1% bovine serum albumin, and 1 mM EDTA. LaCl3 was from Sigma Aldrich; MTSEA, MTSES and MTSET were from Biotium.
# La^3+, AgTx2, MTSEA, MTSES and MTSET and were applied to Xenopus oocytes by means of a fast perfusion technique (ScreeningTool as described by Baburin et al., 2006). Origin software v.7.0 (OriginLab Corp.) was employed for data analysis. Inhibition of inward currents was defined as 1−Iω,drug/Iω,control, where Iω,drug is the current response in the presence of a given concentration of lanthanum (La^3+) and Iω, control is the control current through the omega pore. The concentration-inhibition curve was fitted using the Hill equation: Iω,drug/Iω,control=A+[…] where IC50 is the concentration at which Iω inhibition is half-maximal, C is the applied La^3+ concentration, A is the fraction of Iω current that blocked and nH is the Hill coefficient. Data are given as mean±SE (n=number of experiments).
# [4] = molecular target: Kv1.1 (Homo sapiens, UniProt Q09470); details: cited from earlier work
# [5] = molecular target: Kv1.2 (Homo sapiens, UniProt P16389); details: cited from earlier work
# [6] = molecular target: Kv1.5 (Homo sapiens, UniProt P22460); details: Table 4; cited from earlier work
# [7] = molecular target: KCa3.1 (Homo sapiens, UniProt O15554); details: Table 4; cited from earlier work
# [8] = molecular target: Kv1.6 (Homo sapiens, UniProt P17658); details: Table 4; read-out: IC50 Others: Kv1.6; cited from earlier work
# [9] = molecular target: Kv1.4 (Homo sapiens, UniProt P22459); details: Table 4; read-out: IC50 Others: Kv1.4; cited from earlier work
# [10] = molecular target: Kv1.3 (Homo sapiens, UniProt P22001); details: cited from earlier work
# [11] = molecular target: Shaker (Drosophila melanogaster, UniProt P08510, DUP563-563/L584V/Q583H); details: Table 5, cited from earlier work
# [12] = molecular target: T3, Kv2.1 (Homo sapiens, UniProt Q14721); details: Table 5; read-out: IC50, channel Kv2.1; cited from earlier work
# T3 sequence (Q14721 1-858): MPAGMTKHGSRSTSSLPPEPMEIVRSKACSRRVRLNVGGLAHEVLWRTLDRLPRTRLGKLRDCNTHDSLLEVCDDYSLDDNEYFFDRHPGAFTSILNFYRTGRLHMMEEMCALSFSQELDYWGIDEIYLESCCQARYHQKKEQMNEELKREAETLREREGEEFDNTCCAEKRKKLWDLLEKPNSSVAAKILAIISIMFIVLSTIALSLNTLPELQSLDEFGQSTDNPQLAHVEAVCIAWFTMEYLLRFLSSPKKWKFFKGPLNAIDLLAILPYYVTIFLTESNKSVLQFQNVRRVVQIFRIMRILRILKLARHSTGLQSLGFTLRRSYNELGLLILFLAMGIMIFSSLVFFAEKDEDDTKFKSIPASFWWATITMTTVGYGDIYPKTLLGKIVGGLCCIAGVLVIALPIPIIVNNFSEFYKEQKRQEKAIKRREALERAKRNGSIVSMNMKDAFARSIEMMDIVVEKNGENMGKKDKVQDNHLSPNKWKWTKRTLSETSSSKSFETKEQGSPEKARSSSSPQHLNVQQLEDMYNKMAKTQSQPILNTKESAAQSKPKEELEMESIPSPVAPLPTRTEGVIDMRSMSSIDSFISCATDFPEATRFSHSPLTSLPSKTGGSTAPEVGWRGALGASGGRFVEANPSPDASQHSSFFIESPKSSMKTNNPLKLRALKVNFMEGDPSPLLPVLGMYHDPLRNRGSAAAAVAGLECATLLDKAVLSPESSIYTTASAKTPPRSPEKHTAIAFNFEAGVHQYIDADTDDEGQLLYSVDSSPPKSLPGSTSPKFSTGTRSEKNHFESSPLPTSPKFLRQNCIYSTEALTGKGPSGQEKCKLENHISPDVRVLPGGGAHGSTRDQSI
# [13] = molecular target: T4, Kv2.1 T359S K360G A366D S367A I383M Y384T K386V (Homo sapiens, UniProt Q14721, A366D/I383M/K360G/K386V/S367A/T359S/Y384T); details: Table 5; read-out: IC50, channel Kv2.1 T359S K360G A366D S367A I383M Y384T K386V; cited from earlier work
# T4 sequence (Q14721 1-858 T359S/K360G/A366D/S367A/I383M/Y384T/K386V): T3 sequence (Q14721 1-858) with T359S, K360G, A366D, S367A, I383M, Y384T, K386V
# [14] = Table 5, read-out: IC50, channel Kv1.3
# [15] = Table 5, read-out: IC50, channel Kv1.1
# [16] = Table 5, read-out: IC50, channel Kv1.2
# Kv1.1, sequence (Q09470 whole entry): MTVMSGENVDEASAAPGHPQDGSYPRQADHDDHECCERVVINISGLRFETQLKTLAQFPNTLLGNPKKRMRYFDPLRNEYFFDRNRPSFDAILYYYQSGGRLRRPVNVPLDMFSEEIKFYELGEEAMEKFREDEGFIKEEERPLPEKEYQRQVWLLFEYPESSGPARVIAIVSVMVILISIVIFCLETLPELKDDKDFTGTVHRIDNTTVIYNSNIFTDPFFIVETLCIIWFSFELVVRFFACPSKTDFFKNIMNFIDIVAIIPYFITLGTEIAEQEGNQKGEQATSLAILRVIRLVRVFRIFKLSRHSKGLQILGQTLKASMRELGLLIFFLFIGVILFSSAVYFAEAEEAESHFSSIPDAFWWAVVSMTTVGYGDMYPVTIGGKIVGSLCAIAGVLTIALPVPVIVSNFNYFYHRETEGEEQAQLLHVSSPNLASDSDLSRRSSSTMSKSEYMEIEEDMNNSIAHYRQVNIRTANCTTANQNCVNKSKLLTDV
# Kv1.3, sequence (P22001 whole entry): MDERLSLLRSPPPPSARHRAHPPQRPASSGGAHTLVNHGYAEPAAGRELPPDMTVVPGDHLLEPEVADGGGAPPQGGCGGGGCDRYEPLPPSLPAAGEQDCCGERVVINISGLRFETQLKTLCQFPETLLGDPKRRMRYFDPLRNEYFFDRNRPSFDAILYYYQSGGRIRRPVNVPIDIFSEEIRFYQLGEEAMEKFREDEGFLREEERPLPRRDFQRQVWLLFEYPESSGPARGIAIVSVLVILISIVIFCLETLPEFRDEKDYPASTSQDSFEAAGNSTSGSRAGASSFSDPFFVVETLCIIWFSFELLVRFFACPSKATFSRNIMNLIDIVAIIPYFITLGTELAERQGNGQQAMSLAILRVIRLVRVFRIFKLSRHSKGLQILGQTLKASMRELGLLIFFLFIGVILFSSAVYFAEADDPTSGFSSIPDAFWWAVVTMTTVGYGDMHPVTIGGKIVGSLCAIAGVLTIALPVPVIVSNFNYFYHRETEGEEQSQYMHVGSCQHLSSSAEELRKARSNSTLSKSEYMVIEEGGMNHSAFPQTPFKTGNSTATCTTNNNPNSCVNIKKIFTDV
# Kv1.2, sequence (P16389 whole entry): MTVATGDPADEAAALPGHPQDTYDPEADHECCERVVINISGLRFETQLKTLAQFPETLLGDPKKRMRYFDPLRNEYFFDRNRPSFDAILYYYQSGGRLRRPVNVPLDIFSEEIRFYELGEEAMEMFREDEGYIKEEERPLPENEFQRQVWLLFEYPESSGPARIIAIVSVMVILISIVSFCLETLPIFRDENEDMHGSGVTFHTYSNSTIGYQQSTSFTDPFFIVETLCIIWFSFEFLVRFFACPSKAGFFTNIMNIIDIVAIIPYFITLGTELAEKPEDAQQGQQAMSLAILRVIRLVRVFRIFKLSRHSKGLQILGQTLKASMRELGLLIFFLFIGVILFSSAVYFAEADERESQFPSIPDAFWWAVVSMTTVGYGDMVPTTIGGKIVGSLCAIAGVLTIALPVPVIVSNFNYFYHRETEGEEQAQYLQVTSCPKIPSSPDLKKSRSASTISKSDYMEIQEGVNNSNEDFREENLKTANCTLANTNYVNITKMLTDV
# T2 sequence (P08510 with tags, fused parts or gaps R362S/W434F/DUP563-563/Q583H/L584V): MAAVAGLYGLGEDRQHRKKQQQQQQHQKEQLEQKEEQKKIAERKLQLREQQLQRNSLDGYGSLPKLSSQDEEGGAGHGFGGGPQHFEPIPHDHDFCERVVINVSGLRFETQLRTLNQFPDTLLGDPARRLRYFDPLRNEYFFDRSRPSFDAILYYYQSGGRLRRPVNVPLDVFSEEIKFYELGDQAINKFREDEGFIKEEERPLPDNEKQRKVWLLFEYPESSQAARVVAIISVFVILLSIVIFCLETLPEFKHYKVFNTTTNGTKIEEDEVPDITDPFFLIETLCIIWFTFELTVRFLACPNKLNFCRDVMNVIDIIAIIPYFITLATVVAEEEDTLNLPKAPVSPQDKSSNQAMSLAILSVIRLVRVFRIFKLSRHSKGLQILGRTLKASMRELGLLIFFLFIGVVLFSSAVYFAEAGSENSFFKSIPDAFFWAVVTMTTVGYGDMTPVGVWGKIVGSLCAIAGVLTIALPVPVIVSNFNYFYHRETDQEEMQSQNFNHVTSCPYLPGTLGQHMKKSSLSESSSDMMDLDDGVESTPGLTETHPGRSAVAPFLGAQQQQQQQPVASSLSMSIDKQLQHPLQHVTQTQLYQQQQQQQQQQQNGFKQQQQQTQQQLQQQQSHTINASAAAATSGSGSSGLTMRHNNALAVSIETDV
# Shaker, sequence (P08510 with tags, fused parts or gaps DUP563-563/Q583H/L584V): as the sequence (P08510 with tags, fused parts or gaps R362S/W434F/DUP563-563/Q583H/L584V) above, with S362R, F434W counted along it
# T1 sequence (P08510 with tags, fused parts or gaps R362S/DUP563-563/Q583H/L584V): as the sequence (P08510 with tags, fused parts or gaps R362S/W434F/DUP563-563/Q583H/L584V) above, with F434W counted along it
# Kv1.6, sequence (P17658 whole entry): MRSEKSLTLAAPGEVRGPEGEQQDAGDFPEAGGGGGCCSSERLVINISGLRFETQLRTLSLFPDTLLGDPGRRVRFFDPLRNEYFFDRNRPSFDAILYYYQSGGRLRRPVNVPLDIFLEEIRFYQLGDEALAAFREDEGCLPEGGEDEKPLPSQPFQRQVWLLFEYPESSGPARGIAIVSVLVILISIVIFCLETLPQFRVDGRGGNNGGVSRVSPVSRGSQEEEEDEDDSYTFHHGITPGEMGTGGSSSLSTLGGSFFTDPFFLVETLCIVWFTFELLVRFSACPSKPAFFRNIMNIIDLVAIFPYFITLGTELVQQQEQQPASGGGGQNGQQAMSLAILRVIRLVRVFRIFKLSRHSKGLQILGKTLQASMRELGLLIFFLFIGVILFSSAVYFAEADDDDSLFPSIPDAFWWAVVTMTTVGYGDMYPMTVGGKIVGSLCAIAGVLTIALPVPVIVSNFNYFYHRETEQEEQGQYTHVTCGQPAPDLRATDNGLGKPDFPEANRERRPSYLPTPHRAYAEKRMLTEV
# Kv1.4, sequence (P22459 whole entry): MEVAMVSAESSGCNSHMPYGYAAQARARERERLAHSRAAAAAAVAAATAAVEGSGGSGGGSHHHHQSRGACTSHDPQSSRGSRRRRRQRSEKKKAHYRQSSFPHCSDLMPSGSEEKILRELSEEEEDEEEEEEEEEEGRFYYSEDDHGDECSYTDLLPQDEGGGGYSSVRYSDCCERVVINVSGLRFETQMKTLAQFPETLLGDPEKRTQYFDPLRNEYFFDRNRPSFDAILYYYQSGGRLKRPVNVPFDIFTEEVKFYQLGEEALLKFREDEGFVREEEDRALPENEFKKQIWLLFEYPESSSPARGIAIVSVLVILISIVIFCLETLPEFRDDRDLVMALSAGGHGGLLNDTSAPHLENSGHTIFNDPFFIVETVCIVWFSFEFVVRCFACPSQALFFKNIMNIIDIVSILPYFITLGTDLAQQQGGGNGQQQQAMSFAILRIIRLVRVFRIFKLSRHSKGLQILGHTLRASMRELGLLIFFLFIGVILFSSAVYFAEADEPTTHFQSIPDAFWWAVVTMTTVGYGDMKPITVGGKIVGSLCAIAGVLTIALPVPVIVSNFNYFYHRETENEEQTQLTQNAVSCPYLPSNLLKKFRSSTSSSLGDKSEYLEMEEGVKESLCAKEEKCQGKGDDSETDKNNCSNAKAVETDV
# Kv1.5, sequence (P22460 whole entry): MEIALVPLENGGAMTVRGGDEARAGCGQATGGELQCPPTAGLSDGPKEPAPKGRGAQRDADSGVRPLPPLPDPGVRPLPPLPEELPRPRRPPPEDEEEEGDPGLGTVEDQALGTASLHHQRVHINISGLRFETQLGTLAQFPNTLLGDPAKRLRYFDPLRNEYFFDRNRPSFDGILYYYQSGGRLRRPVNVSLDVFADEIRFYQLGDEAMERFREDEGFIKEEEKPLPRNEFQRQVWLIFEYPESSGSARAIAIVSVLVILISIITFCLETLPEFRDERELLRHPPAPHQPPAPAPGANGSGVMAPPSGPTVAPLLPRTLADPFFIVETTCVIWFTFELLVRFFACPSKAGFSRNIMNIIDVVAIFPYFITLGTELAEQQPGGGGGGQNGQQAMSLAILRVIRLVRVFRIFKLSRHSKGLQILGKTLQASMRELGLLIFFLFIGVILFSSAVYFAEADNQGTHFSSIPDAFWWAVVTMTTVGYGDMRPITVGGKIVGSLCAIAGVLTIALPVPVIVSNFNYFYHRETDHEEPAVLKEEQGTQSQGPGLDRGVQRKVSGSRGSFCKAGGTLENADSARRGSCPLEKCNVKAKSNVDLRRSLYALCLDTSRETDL
# KCa3.1, sequence (O15554 whole entry): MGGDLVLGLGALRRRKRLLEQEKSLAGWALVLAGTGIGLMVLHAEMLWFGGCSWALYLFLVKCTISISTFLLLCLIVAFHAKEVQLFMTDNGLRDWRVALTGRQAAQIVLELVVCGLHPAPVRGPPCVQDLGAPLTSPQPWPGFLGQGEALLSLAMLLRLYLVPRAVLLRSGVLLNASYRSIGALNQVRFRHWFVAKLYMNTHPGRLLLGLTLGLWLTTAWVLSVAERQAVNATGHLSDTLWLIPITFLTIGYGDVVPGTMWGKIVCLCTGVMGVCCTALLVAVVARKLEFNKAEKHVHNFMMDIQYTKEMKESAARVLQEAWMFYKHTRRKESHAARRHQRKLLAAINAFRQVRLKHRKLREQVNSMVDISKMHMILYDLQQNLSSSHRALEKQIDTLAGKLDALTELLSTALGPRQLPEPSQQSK
molecule,measurement,setting,value
"O.O.O.O.O.O.O.[Cl-].[Cl-].[Cl-].[La+3] [La3+, Lanthanum(III) chloride heptahydrate]",Block of omega current (Iω) of R1S Shaker,[1],blocked in a concentration-dependent manner
same,Block of Iω during the first pulse,[2],31.8±3.6%
same,Block of omega currents at steady state,[2]; 5 oocytes,51.5±5.9%
same,Block of inward currents at negative potentials (Iω),[3]; 30 μM to 10 mM La3+,blocked
same,Hill coefficient nH,"[3]; inward currents after 5 ms at -300 mV, Hill fit",0.8±0.1
O=c1ccc2c(OCCCCOc3ccccc3)c3ccoc3cc2o1 [PAP-1],IC50,"[4]; Table 4, read-out: IC50 Kv1.1",65 nM
same,IC50,"[5]; Table 4, read-out: IC50 Kv1.2",250 nM
same,IC50,[6],45 nM
same,IC50,[7],10000 nM
same,IC50,[8],31000 nM
same,IC50,[9],170 nM
O=c1ccc2c(OCCCCc3ccccc3)c3ccoc3cc2o1 [Psora-4],IC50,[8],62 nM
Charybdotoxin [Charybdotoxin (ChTX)],IC50,"[10]; Table 3, read-out: IC50 Values of Kv1.3 ion channel modulating agent",0.19 nM
same,IC50,[10]; [14],0.19 nM
same,IC50,[4]; [15],1500 nM
same,IC50,[5]; [16],14 nM
same,IC50,"[11]; read-out: IC50, channel Shaker",227 nM
same,IC50,[12],> 2000 nM
hanatoxin [HaTx],IC50,[10]; [14],> 500 nM
same,IC50,[4]; [15],> 500 nM
same,IC50,[5]; [16],> 2000 nM
same,"IC50, channel Shaker",[11]; result in words,Weak
same,IC50,[12],107 nM
same,IC50,[13],102 nM
